pIC50: −log10 of the molar value. Where two headings read alike, the source gives them in different places.

The subject of one assay is MDA-MB-231 cells. The assay can be described thus: Invasion of MDA-MB-231 multicellular tumor spheroids in 3D collagen matrix. It is filed as cell-based. The note with it: MDA-MB-231 spheroids, 24 hours in collagen culture; in comparison to UNC1653, UNC2025, UNC2250. The source says:
The invasion of triple negative highly aggressive breast adenocarcinoma cells (MDA-MB-231) cultured as multicellular tumor spheroids (MTSs) in a 3D collagen matrix was examined.

The next assay concerns the target T1, Mer (Homo sapiens, UniProt Q12866).
T1 sequence (Q12866 21-999): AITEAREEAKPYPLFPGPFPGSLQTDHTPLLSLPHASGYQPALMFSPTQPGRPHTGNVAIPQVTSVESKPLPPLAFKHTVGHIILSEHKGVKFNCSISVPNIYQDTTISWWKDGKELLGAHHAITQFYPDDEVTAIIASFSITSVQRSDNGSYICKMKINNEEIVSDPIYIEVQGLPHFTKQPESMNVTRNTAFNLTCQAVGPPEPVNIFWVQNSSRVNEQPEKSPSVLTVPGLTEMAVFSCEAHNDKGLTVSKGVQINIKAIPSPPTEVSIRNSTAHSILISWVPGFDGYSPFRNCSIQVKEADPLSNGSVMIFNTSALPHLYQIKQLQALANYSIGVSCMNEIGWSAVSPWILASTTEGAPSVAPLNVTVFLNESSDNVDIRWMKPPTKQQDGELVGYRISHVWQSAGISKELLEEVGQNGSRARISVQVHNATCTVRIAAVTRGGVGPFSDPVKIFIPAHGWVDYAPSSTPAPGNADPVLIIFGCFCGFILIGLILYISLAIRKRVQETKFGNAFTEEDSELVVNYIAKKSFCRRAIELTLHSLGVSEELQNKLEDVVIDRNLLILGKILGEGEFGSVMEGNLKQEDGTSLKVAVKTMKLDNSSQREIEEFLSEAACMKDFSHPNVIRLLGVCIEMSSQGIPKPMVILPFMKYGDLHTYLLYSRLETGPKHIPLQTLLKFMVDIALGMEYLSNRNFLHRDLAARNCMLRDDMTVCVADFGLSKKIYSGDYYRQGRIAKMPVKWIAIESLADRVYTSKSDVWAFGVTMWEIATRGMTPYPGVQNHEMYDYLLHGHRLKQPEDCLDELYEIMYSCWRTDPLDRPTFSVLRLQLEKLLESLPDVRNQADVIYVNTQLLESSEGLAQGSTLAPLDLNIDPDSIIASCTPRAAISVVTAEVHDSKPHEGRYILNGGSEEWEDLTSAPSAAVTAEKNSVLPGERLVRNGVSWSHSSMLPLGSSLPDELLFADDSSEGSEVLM
Briefly: Mer kinase inhibition IC50. Type of assay: biochemical.

The target in another assay is T2, FLT3 (Homo sapiens, UniProt P36888).
T2 sequence (P36888 27-993): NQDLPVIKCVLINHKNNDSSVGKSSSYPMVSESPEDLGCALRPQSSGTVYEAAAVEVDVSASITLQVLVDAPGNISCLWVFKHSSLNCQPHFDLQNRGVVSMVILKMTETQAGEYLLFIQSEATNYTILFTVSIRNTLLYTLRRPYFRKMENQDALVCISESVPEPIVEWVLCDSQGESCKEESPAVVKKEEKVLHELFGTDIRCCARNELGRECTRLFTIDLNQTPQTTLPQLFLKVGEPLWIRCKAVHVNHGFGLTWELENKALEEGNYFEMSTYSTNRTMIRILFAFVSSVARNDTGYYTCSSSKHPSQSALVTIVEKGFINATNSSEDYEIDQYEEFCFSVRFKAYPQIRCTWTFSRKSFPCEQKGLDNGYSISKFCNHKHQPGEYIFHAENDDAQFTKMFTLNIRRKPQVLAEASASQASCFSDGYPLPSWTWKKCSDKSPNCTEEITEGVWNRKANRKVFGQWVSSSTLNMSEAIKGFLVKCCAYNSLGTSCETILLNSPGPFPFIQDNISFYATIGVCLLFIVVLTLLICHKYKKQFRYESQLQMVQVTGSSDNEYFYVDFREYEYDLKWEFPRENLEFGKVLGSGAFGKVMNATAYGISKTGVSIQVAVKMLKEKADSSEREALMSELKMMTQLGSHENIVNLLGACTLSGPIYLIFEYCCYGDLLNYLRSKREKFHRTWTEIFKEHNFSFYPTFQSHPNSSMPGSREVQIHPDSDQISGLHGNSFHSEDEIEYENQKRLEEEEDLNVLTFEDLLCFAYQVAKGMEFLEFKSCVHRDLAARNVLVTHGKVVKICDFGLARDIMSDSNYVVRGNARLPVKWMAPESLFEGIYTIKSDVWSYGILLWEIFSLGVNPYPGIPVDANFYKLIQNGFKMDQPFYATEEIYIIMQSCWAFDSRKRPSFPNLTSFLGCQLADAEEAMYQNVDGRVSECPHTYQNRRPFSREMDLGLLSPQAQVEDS
Briefly: FLT3 kinase inhibition IC50. The following applies: Example 6. Type of assay: biochemical.

Another assay concerns the target T3, Axl (Homo sapiens, UniProt P30530).
T3 sequence (P30530 26-894): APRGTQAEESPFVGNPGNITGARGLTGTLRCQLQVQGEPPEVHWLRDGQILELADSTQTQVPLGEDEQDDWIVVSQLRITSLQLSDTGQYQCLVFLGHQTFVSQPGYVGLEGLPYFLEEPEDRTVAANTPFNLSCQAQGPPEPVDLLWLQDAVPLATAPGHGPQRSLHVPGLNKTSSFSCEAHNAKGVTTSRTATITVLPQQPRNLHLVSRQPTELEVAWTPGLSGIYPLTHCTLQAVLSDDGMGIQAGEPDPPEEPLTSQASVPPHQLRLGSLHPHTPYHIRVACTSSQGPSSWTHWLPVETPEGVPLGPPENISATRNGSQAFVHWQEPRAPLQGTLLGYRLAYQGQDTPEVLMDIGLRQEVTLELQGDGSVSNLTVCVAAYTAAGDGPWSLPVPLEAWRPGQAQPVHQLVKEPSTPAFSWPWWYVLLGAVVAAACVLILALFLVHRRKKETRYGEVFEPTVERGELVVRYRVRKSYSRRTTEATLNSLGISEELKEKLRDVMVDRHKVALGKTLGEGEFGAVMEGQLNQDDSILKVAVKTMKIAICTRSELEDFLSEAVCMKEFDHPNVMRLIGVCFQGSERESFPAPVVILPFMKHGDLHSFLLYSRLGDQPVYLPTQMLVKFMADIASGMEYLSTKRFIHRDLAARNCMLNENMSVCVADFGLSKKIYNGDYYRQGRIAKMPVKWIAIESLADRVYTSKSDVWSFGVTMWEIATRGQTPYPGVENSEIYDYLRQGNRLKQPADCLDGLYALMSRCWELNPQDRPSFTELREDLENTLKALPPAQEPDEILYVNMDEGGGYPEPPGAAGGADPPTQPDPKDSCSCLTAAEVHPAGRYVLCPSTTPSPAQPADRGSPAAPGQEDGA
Briefly: Axl kinase inhibition IC50. Type of assay: biochemical.

On to `O[C@H]1CC[C@H](Nc2nc(Nc3ccccc3)ncc2-c2ccc(CN3CCCC3)cn2)CC1` [UNC4198A], for which the levels of invasion entry with MDA-MB-231 cells was “decreased levels of invasion”. The pIC50 (in general, the negative decadic logarithm of the IC50, by convention in mol/L) at Mer (Example 6, read-out: MerTK IC50) is 9.01; on Mer (Table 1, read-out: Mer IC50) it was more than 8.00; against FLT3, 9.12; against Axl (Example 6) it was 8.26; against Axl (Table 1), more than 8.00.

Values taken from patent US10526309B2, “Pan-TAM inhibitors and Mer/Axl dual inhibitors” (The University of North Carolina at Chapel Hill, priority 2015, dated 2020).
